This assay has as its target T1, ehRad51 (Entamoeba histolytica, UniProt C4M4K4).
T1 sequence (C4M4K4 1-366): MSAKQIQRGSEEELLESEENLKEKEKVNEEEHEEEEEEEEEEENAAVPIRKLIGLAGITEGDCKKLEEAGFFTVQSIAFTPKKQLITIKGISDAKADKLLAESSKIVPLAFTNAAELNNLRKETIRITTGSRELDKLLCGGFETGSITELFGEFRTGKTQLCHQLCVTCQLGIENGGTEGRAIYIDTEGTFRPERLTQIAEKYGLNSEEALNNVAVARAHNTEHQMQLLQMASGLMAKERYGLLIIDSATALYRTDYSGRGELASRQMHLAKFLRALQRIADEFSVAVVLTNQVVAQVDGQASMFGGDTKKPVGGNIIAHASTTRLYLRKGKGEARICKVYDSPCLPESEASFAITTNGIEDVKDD
The experiment in a line: oligonucleotide DNA strand exchange. In kind it is biochemical.

Take `O=S(=O)(O)c1cc(N=C=S)ccc1C=Cc1ccc(N=C=S)cc1S(=O)(=O)O` [DIDS, 4,4′-diisothiocyanostilbene-2,2′-disulfonic acid]: the IC50 was found to be 18.5 µM.

For orientation: IC50 means the midpoint of a concentration-inhibition curve.

The record behind these values is article PMC5125864 (Molecular and biochemical parasitology, 2016).
